Values quoted from earlier work, collected in US7351421B2, “Drug-eluting stent having collagen drug carrier chemically treated with genipin” (priority 1996, dated 2008).
“Also recorded” adds a separate entry of the source.

Key:
3T3 fibroblasts = conditions: in vitro
CHO-K1 cells = conditions: in vitro
[1] = glutaraldehyde used to crosslink materials
smooth muscle cell = conditions: in vitro
[2] = system: intimal proliferative lesion; conditions: in vivo
intimal proliferation = conditions: de-endothelialized rabbits, in vivo

## COC(=O)C1=CO[C@@H](O)[C@@H]2C(CO)=CC[C@H]12 [Genipin]
3T3 fibroblasts
  cytotoxicity compared with glutaraldehyde: substantially less cytotoxic; also recorded: significantly less cytotoxic
CHO-K1 cells
  clastogenic response (genotoxicity): does not cause clastogenic response
mice
  LD50 i.v.: 382 mg/k

## O=CCCCC=O [glutaraldehyde]
[1]
  crosslinking concentration giving persistent foreign-body reaction: above 0.05%
Tissue culture
  concentration at which cytotoxic: 10-25 ppm
Tissue culture; tissue culture, as low as
  concentration at which cytotoxic in tissue culture: ≥ 3 ppm

## cyclosporin A
Smooth muscle cell
  effect on smooth muscle cell proliferation: did not inhibit
[2]
  effect on intimal proliferative lesion following arterial balloon catheterization: inhibition
Intimal proliferation
  reduction of intimal proliferation: no significant reduction
